Consider seven compounds from patent US7192746B2, “α-Isomaltosyltransferase, process for producing the same and use thereof” (Kabushiki Kaisha Hayashibara Seibutsu Kagaku Kenkyujo, priority 2000, dated 2007).

What all share (assay type): biochemical
In assay [1] the test system is α-isomaltosyl-transferring enzyme from Arthrobacter ramosus S1. Briefly: Action on saccharides (substrates, TLC). As to conditions: 2 units/g substrate, 2% (w/v) substrate, 30° C., pH 6.0, 24 hours. Also noted: key: −: there was found no substrate change before and after the enzymatic reaction; +: there were found both the reduction of substrate and the formation of cyclotetrasaccharide after the enzymatic reaction. The source says:
(§1) To examine the saccharides in the supernatant, they were separated from the supernatant by silica gel thin-layer chromatography (abbreviated as “TLC” hereinafter) using, as a developer, a mixture solution of n-butanol, pyridine, and water (=6:4:1), and, as a thin-layer plate, “[…] 60”, an aluminum plate (20×20 cm) for TLC commercialized by […]. The coloration of both the separated total sugars by the sulfuric acid-methanol method and the reducing saccharides by the diphenylamine-aniline method detected a non-reducing saccharide at a position with an Rf value of about 0.31, which was positive on the former detection method but negative on the latter detection method.
(§2) It was tested whether saccharides can be used as substrates for the α-isomaltosyl-transferring enzyme. For the purpose, a solution of maltose, maltotriose, maltotetraose, maltopentaose, maltohexaose, maltoheptaose, isomaltose, isomaltotriose, panose, isomaltosylmaltose, isopanose, α,α-trehalose, kojibiose, nigerose, α,β-trehalose, cellobiose, gentibiose, maltitol, maltotriitol, lactose, sucrose, α-cyclodextrin, β-cyclodextrin, γ-cyclodextrin, soluble starch, pullulan, or dextran was prepared. To each of the above solutions was added two units/g substrate of a purified specimen of either α-isomaltosyl-transferring enzyme from Bacillus globisporus C9 obtained by the method in Experiment 4, Bacillus globisporus C11 obtained by the method in Experiment 7, Bacillus globisporus N75 obtained by the method in Experiment 11, or Arthrobacter ramosus S1 obtained by the method in Experiment 15, or a partially purified α-isomaltosyl-transferring enzyme from Arthrobacter globiformis A19 obtained by the method in Experiment 15. The resulting each solution was adjusted to give a substrate concentration of 2% (w/v) and incubated at 30° C. and pH 6.0 for 24 hours. The enzyme solutions before and after the enzymatic reactions were respectively analyzed on TLC as disclosed in Experiment 1 to confirm whether the enzymes acted on these substrates.

The subject of assay [2] is α-isomaltosyl-transferring enzyme from Bacillus globisporus C9. Description: Action on saccharides (substrates, TLC). Also noted: key: −: there was found no substrate change before and after the enzymatic reaction; +: there were found both the reduction of substrate and the formation of cyclotetrasaccharide after the enzymatic reaction. As to conditions: 2 units/g substrate, 2% (w/v) substrate, 30° C., pH 6.0, 24 hours.
Description: as §1, §2

Assay [3] has as its system α-isomaltosyl-transferring enzyme from Bacillus globisporus N75. Briefly: Action on saccharides (substrates, TLC). Also on record: key: −: there was found no substrate change before and after the enzymatic reaction; +: there were found both the reduction of substrate and the formation of cyclotetrasaccharide after the enzymatic reaction. As to conditions: 2 units/g substrate, 2% (w/v) substrate, 30° C., pH 6.0, 24 hours.
Description: as §1, §2

The test system of assay [4] is α-isomaltosyl-transferring enzyme from Arthrobacter globiformis A19. Description: Action on saccharides (substrates, TLC). As to conditions: partially purified enzyme, 2 units/g substrate, 2% (w/v) substrate, 30° C., pH 6.0, 24 hours. Also noted: key: −: there was found no substrate change before and after the enzymatic reaction; +: there were found both the reduction of substrate and the formation of cyclotetrasaccharide after the enzymatic reaction.
Description: as §1, §2

The subject of assay [5] is α-isomaltosyl-transferring enzyme from Bacillus globisporus C11. Briefly: Action on saccharides (substrates, TLC). Also on record: key: −: there was found no substrate change before and after the enzymatic reaction; +: there were found both the reduction of substrate and the formation of cyclotetrasaccharide after the enzymatic reaction. The note with it: 2 units/g substrate, 2% (w/v) substrate, 30° C., pH 6.0, 24 hours.
Description: as §1, §2

The test system of assay [6] is α-isomaltosyl-transferring enzyme from Arthrobacter ramosus S1. Briefly: Specificity to transferring acceptor. The note with it: panose as saccharide donor, 10 units/g substrate, 3.2% (w/v), 30° C., pH 6.0, 24 hours. Also noted: key: −: no saccharide transferred product was formed; ±: a saccharide-transferred product formed in an amount of less than one percent to the total sugars; +: a saccharide-transferred product was formed in an amount of over one percent but below 10% to the total sugars; ++: a saccharide-transferred product was formed in an amount of over 10% to the total sugars. The procedure: (§3) Saccharides were tested as follows to examine whether they can be used as transferring acceptors for the α-isomaltosyl-transferring enzyme of the present invention. A solution of D-glucose, D-xylose, L-xylose, D-galactose, D-fructose, D-mannose, D-arabinose, D-fucose, L-sorbose, L-rhamnose, methyl-α-glucoside (or methyl-α-glucopyranoside), methyl-β-glucoside (or methyl-β-glucopyranoside), N-acetyl-D-glucosamine, D-ribose, L-ribose, D-psicose, sorbitol, xylitol, mannitol, arabitol, ribitol, erythritol, maltose, maltotriose, maltotetraose, maltopentaose, isomaltose, isomaltotriose, α,α-trehalose, α,β-trehalose, kojibiose, nigerose, cellobiose, gentibiose, isopanose, maltitol, maltotriitol, lactose, sucrose, erlose, isomaltosylglucoside, α-cyclodextrin, β-cyclodextrin, γ-cyclodextrin, or L-ascorbic acid was prepared. To each solution was added panose as a saccharide donor to give an equal concentration, admixed with 10 units/g substrate of a purified specimen of either α-isomaltosyl-transferring enzyme from Bacillus globisporus C9 obtained by the method in Experiment 4, Bacillus globisporus C11 obtained by the method in Experiment 7, Bacillus globisporus N75 obtained by the method in Experiment 11, or Arthrobacter ramosus S1 obtained by the method in Experiment 15, or a partially purified specimen of α-isomaltosyl-transferring enzyme from Arthrobacter globiformis A19 obtained by the method in Experiment 18, followed by adjusting the saccharide concentration to 3.2% (w/v). The mixtures thus obtained were enzymatically reacted at 30° C. and Ph 6.0 for 24 hours. The saccharide composition of the resulting reaction mixtures were analyzed on gas chromatography (abbreviated as “GLC” hereinafter) for monosaccharides and disaccharides as testing saccharides, and on HPLC for tri- or higher-saccharides as testing saccharides to confirm whether these saccharides can be used as transferring acceptors for the above enzymes with an index of the positive or negative formation of a saccharide transferred product. In performing GLC, the following apparatuses and conditions were used: GLC apparatus, “GC-16A” commercialized by Shimadzu Corporation, Tokyo, Japan; column, a stainless-steel column, 3 mm in diameter and 2 m in length, packed with 2% “SILICONE OV-17/[…]”, commercialized by GL Sciences Inc., Tokyo, Japan; carrier gas, nitrogen gas at a flow rate of 40 ml/min under temperature conditions of increasing from 160° C. to 320° C. at an increasing temperature rate of 7.5° C./min; and detection, a hydrogen flame ionization detector. In the case of HPLC analysis, the apparatuses and conditions used were: HPLC apparatus, “CCPD” commercialized by Tosoh Corporation, Tokyo, Japan; column, “ODS-AQ-303” commercialized by YMC Co., Ltd., Tokyo, Japan; eluent, water at a flow rate of 0.5 ml/min; and detection, a differential refractometer.

In assay [7] the test system is α-isomaltosyl-transferring enzyme from Bacillus globisporus C9. Description: Specificity to transferring acceptor. Also noted: key: −: no saccharide transferred product was formed; ±: a saccharide-transferred product formed in an amount of less than one percent to the total sugars; +: a saccharide-transferred product was formed in an amount of over one percent but below 10% to the total sugars; ++: a saccharide-transferred product was formed in an amount of over 10% to the total sugars. The note with it: panose as saccharide donor, 10 units/g substrate, 3.2% (w/v), 30° C., pH 6.0, 24 hours. As to the method: as §3

The subject of assay [8] is α-isomaltosyl-transferring enzyme from Bacillus globisporus N75. Description: Specificity to transferring acceptor. Also noted: key: −: no saccharide transferred product was formed; ±: a saccharide-transferred product formed in an amount of less than one percent to the total sugars; +: a saccharide-transferred product was formed in an amount of over one percent but below 10% to the total sugars; ++: a saccharide-transferred product was formed in an amount of over 10% to the total sugars. The note with it: panose as saccharide donor, 10 units/g substrate, 3.2% (w/v), 30° C., pH 6.0, 24 hours. As to the method:
as §3

Assay [9] has as its system α-isomaltosyl-transferring enzyme from Arthrobacter globiformis A19. Description: Specificity to transferring acceptor. Also on record: key: −: no saccharide transferred product was formed; ±: a saccharide-transferred product formed in an amount of less than one percent to the total sugars; +: a saccharide-transferred product was formed in an amount of over one percent but below 10% to the total sugars; ++: a saccharide-transferred product was formed in an amount of over 10% to the total sugars. As to conditions: partially purified enzyme, panose as saccharide donor, 10 units/g substrate, 3.2% (w/v), 30° C., pH 6.0, 24 hours. The procedure: as §3

Assay [10] deals with α-isomaltosyl-transferring enzyme from Bacillus globisporus C11. Description: Specificity to transferring acceptor. Also noted: key: −: no saccharide transferred product was formed; ±: a saccharide-transferred product formed in an amount of less than one percent to the total sugars; +: a saccharide-transferred product was formed in an amount of over one percent but below 10% to the total sugars; ++: a saccharide-transferred product was formed in an amount of over 10% to the total sugars. The note with it: panose as saccharide donor, 10 units/g substrate, 3.2% (w/v), 30° C., pH 6.0, 24 hours. As to the method: as §3

Regarding `OC[C@H]1O[C@H](OC[C@H]2O[C@H](O[C@H]3[C@H](O)[C@@H](O)[C@@H](O[C@H]4[C@H](O)[C@@H](O)C(O)O[C@@H]4CO)O[C@@H]3CO)[C@H](O)[C@@H](O)[C@@H]2O)[C@H](O)[C@@H](O)[C@@H]1O` (some centres unmarked) [Isomaltosylmaltose, isomaltosylmaltose], the “Enzymatic action for forming cyclotetrasaccharide, Enzyme of Strain S1” value in [1] was “+”. In addition, in assay [2], the “Enzymatic action for forming cyclotetrasaccharide, Enzyme of Strain C9” value is “+”. Besides, in [3], the “Enzymatic action for forming cyclotetrasaccharide, Enzyme of Strain N75” value was “+”. For the same compound, in assay [4], the “Enzymatic action for forming cyclotetrasaccharide, Enzyme of Strain A19” value was “+”. Also, in [5], the “Enzymatic action for forming cyclotetrasaccharide, Enzyme of Strain C11” value is on record as “+”.
For `CO[C@@H]1O[C@H](CO)[C@@H](O)[C@H](O)[C@H]1O` [Methyl-β-glucoside, methyl-β-glucoside], the “Product of transferring reaction, Enzyme of Strain S1” value (shortened to “Product … of Strain S1”) in assay [6] is on record as “+ (a saccharide-transferred product was formed in an amount of over one percent but below 10% to the total sugars)”. In addition, the “Product of transferring reaction, Enzyme of Strain C9” value (from here on “Product … of Strain C9”) in assay [7] is recorded as “++ (a saccharide-transferred product was formed in an amount of over 10% to the total sugars)”. Besides, the “Product of transferring reaction, Enzyme of Strain N75” value (“Product … of Strain N75” for short) in assay [8] is listed as “++ (a saccharide-transferred product was formed in an amount of over 10% to the total sugars)”. Further, the “Product of transferring reaction, Enzyme of Stain A19” value (from here on “Product … of Stain A19”) in [9] is reported as “+ (a saccharide-transferred product was formed in an amount of over one percent but below 10% to the total sugars)”. Besides, the “Product of transferring reaction, Enzyme of Strain C11” value (“Product … of Strain C11” for short) in [10] was “++ (a saccharide-transferred product was formed in an amount of over 10% to the total sugars)”.
As to `CC(=O)N[C@H]1C(O)O[C@H](CO)[C@@H](O)[C@@H]1O` (stereo partly drawn) [N-Acetyl-glucosamine, N-acetyl-D-glucosamine], the “Product … of Strain S1” value in assay [6] is “−”. Further, the “Product … of Strain C9” value in assay [7] is given as “−”. Also, the “Product … of Strain N75” value in assay [8] is “−”. In addition, the “Product … of Stain A19” value in assay [9] was “−”. The “Product … of Strain C11” value in assay [10] was “−”.
On to `OC[C@@H](O)[C@@H](O)[C@@H](O)CO` [Ribitol, ribitol], for which the “Product … of Strain S1” value in [6] was “± (a saccharide-transferred product formed in an amount of less than one percent to the total sugars)”. Besides, the “Product … of Strain C9” value in [7] is on record as “−”. In addition, the “Product … of Strain N75” value in assay [8] is reported as “−”. In addition, the “Product … of Stain A19” value in assay [9] is “−”. Further, the “Product … of Strain C11” value in [10] is “−”.
As for `OC[C@@H](O)[C@@H](O)[C@H](O)[C@@H](O)CO` [Sorbitol, sorbitol], the “Product … of Strain S1” value in assay [6] was “± (a saccharide-transferred product formed in an amount of less than one percent to the total sugars)”. The “Product … of Strain C9” value in [7] is “−”. In addition, in [8], the “Product … of Strain N75” value is “−”. Also, the “Product … of Stain A19” value in [9] was “± (a saccharide-transferred product formed in an amount of less than one percent to the total sugars)”. Besides, in [10], the “Product … of Strain C11” value is given as “−”.
On to `OC[C@@H](O)[C@H](O)[C@@H](O)CO` [Xylitol, xylitol], for which the “Product … of Strain S1” value in [6] was “± (a saccharide-transferred product formed in an amount of less than one percent to the total sugars)”. For the same compound, the “Product … of Strain C9” value in assay [7] is listed as “−”. Also, the “Product … of Strain N75” value in [8] was “−”. In addition, the “Product … of Stain A19” value in assay [9] is recorded as “± (a saccharide-transferred product formed in an amount of less than one percent to the total sugars)”. For the same compound, the “Product … of Strain C11” value in assay [10] is “−”.
For the compound isomaltosylglucoside, in [6], the “Product … of Strain S1” value is given as “++ (a saccharide-transferred product was formed in an amount of over 10% to the total sugars)”. Further, in assay [7], the “Product … of Strain C9” value is “++ (a saccharide-transferred product was formed in an amount of over 10% to the total sugars)”. In addition, in assay [8], the “Product … of Strain N75” value is on record as “++ (a saccharide-transferred product was formed in an amount of over 10% to the total sugars)”. The “Product … of Stain A19” value in assay [9] is “++ (a saccharide-transferred product was formed in an amount of over 10% to the total sugars)”. Besides, the “Product … of Strain C11” value in assay [10] is listed as “++ (a saccharide-transferred product was formed in an amount of over 10% to the total sugars)”.
